Experimental data from ChEMBL document CHEMBL5096235, “In Silico Exploration and Biological Evaluation of Bispecific Peptides Derived from Anti-HER2 Antibodies and Peptide-Camptothecin Conjugates for HER2-Positive Breast Cancer” (J Med Chem, 2022).
Calls of active or inactive are those of the source. No cut-off for these calls is given here. Residues, ends and D or L forms follow the SMILES beside them. *: point of attachment. S(CH2)2OCO2(CPT-20-yl) = CC[C@@]1(OC(=O)OCCS*)C(=O)OCc2c1cc1n(c2=O)Cc2cc3ccccc3nc2-1

Columns and labels:
MDA-MB-231 = test: Cytotoxicity against HER-negative human MDA-MB-231 cells assessed as inhibition of cell growth incubated for 48 hrs by MTT assay; format: functional, cell-based; settings: MDA-MB-231, 48 h
SK-OV-3 = test: Cytotoxicity against HER-positive human SK-OV-3 cells assessed as inhibition of cell growth incubated for 48 hrs by MTT assay; format: functional, cell-based; settings: SK-OV-3, 48 h
[1] = […] in nude mouse xenografted with human SK-BR-3 cells assessed as effect on aspartate aminotransferase level at 8 micromol/kg, iv administered every 3 days for 14 days; format: organism-based; settings: in vivo, 336 h, dose 8 µmol/kg, time 14 day
[2] = Toxicity in nude mouse xenografted with human SK-BR-3 cells assessed as effect on total protein level at 8 micromol/kg, iv administered every 3 days for 14 days; format: organism-based; settings: in vivo, 336 h, dose 8 µmol/kg, time 14 day
[3] = Metabolic stability in Sprague-Dawley rat plasma assessed as drug degradation incubated for 120 mins by LC-MS/MS analysis; format: ADME, cell-free; settings: 2 h
SK-BR-3 [4] = test: Cytotoxicity against HER-positive human SK-BR-3 cells assessed as inhibition of cell growth incubated for 48 hrs by MTT assay; format: functional, cell-based; settings: SK-BR-3, 48 h
SK-BR-3 [5] = test: Induction of apoptosis in human SK-BR-3 cells assessed as early apoptotic cells at 1 uM incubated for 24 hrs by Annexin V-FITC/PI staining based flow cytometry analysis (Rvb= 4.37%); format: functional
[6] = Toxicity in nude mouse xenografted with human SK-BR-3 cells assessed as lung damage at 8 micromol/kg, iv administered every 3 days for 14 days by H and E staining based analysis; format: organism-based; settings: in vivo, 336 h, dose 8 µmol/kg, time 14 day
[7] = Renal toxicity in nude mouse xenografted with human SK-BR-3 cells assessed as effect on blood urea nitrogen level at 8 micromol/kg, iv administered every 3 days for 14 days; format: organism-based; settings: in vivo, 336 h, dose 8 µmol/kg, time 14 day
[8] = Toxicity in nude mouse xenografted with human SK-BR-3 cells assessed as liver damage at 8 micromol/kg, iv administered every 3 days for 14 days by H and E staining based analysis; format: organism-based; settings: in vivo, 336 h, dose 8 µmol/kg, time 14 day
[9] = Metabolic stability in Sprague-Dawley rat plasma assessed as half life incubated for 120 mins by LC-MS/MS analysis; format: ADME, cell-free
SK-BR-3 [10] = test: Induction of apoptosis in human SK-BR-3 cells assessed as early apoptotic cells at 2 uM incubated for 24 hrs by Annexin V-FITC/PI staining based flow cytometry analysis (Rvb= 4.37%); format: functional
[11] = biological target: T1, DNA topoisomerase 1 (Homo sapiens) (UniProt P11387); test: Inhibition of topoisomerase 1 (unknown origin) assessed as relaxation of supercoiled plasmid pBR322 DNA at 100 uM preincubated for 20 mins followed by pBR322 DNA addition and measured after 30 mins by agarose gel electrophoresis analysis; settings: time 50.0 min
T1 sequence (whole entry): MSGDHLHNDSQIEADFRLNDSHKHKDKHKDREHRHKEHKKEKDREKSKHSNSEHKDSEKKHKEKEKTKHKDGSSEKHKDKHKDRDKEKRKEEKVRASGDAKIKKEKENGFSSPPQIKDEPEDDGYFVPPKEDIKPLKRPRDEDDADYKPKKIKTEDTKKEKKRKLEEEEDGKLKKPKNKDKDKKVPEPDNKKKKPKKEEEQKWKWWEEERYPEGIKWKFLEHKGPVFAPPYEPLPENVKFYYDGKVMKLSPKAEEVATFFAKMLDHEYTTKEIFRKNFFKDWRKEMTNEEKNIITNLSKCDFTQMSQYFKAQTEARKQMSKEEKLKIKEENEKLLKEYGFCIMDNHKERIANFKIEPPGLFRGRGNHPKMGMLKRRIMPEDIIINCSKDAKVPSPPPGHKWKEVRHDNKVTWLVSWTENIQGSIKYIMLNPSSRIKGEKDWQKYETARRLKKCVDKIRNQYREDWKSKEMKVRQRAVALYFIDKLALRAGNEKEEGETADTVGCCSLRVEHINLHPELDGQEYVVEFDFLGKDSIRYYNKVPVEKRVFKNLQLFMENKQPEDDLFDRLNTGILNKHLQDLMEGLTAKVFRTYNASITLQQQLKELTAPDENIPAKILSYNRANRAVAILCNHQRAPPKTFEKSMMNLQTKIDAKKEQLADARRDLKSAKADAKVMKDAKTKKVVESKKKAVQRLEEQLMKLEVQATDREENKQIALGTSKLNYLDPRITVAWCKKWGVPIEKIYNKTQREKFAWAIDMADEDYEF

[12] = Toxicity in nude mouse xenografted with human SK-BR-3 cells assessed as spleen damage at 8 micromol/kg, iv administered every 3 days for 14 days by H and E staining based analysis; format: organism-based; settings: in vivo, 336 h, dose 8 µmol/kg, time 14 day
[13] = Toxicity in nude mouse xenografted with human SK-BR-3 cells assessed as effect on creatinine level at 8 micromol/kg, iv administered every 3 days for 14 days; format: organism-based; settings: in vivo, 336 h, dose 8 µmol/kg, time 14 day
[14] = […] in nude mouse xenografted with human SK-BR-3 cells assessed as effect on alanine aminotransferase level at 8 micromol/kg, iv administered every 3 days for 14 days; format: organism-based; settings: in vivo, 336 h, dose 8 µmol/kg, time 14 day
[15] = Cytotoxicity against human MCF-10A cells assessed as inhibition of cell growth incubated for 48 hrs by MTT assay; format: toxicity, cell-based
SK-BR-3 [16] = test: Induction of apoptosis in human SK-BR-3 cells assessed as live cells at 1 uM incubated for 24 hrs by Annexin V-FITC/PI staining based flow cytometry analysis (Rvb= 89.4%); format: functional
[17] = Toxicity in nude mouse xenografted with human SK-BR-3 cells assessed as reduction in body weight at 8 umol/kg, iv administered every 3 days for 14 days; format: organism-based; settings: in vivo, 336 h, dose 8 µmol/kg, time 14 day
SK-BR-3 [18] = test: Induction of apoptosis in human SK-BR-3 cells assessed as late apoptotic cells at 2 uM incubated for 24 hrs by Annexin V-FITC/PI staining based flow cytometry analysis (Rvb= 5.02%); format: functional
[19] = biological target: T2, Receptor tyrosine-protein kinase erbB-2 (Homo sapiens, UniProt P04626); test: Binding affinity to recombinant HER2 (unknown origin) assessed as dissociation constant by SPR analysis
NCI-N87 = test: Cytotoxicity against HER-positive human NCI-N87 cells assessed as inhibition of cell growth incubated for 48 hrs by MTT assay; format: functional, cell-based; settings: NCI-N87, 48 h
[20] = Toxicity in nude mouse xenografted with human SK-BR-3 cells assessed as inflammatory cell infiltration at 8 micromol/kg, iv administered every 3 days for 14 days by H and E staining based analysis; format: organism-based; settings: in vivo, 336 h, dose 8 µmol/kg, time 14 day
[21] = Toxicity in nude mouse xenografted with human SK-BR-3 cells assessed as cellular necrosis at 8 micromol/kg, iv administered every 3 days for 14 days by H and E staining based analysis; format: organism-based; settings: in vivo, 336 h, dose 8 µmol/kg, time 14 day
[22] = biological target: Epidermal growth factor receptor and ErbB2 (HER1 and HER2) (Homo sapiens) (UniProt P04626+P00533); test: Inhibition of EGFR/HER2 heterodimerization in human SK-BR-3 cells at 10 uM preincubated for 4 hrs followed by EGF addition for 20 mins by immunoprecipitation analysis; format: cell-based; settings: time 260.0 min
[23] = Toxicity in nude mouse xenografted with human SK-BR-3 cells assessed as kidney damage at 8 micromol/kg, iv administered every 3 days for 14 days by H and E staining based analysis; format: organism-based; settings: in vivo, 336 h, dose 8 µmol/kg, time 14 day
[24] = biological target: T2, Receptor tyrosine-protein kinase erbB-2; test: Binding affinity to HER2 in HER-positive human SK-BR-3 cells assessed as increase in fluorescence intensity at 25 uM by Hoechst 33342 staining based confocal microscopic analysis; format: cell-based

T2 sequence (P04626 whole entry): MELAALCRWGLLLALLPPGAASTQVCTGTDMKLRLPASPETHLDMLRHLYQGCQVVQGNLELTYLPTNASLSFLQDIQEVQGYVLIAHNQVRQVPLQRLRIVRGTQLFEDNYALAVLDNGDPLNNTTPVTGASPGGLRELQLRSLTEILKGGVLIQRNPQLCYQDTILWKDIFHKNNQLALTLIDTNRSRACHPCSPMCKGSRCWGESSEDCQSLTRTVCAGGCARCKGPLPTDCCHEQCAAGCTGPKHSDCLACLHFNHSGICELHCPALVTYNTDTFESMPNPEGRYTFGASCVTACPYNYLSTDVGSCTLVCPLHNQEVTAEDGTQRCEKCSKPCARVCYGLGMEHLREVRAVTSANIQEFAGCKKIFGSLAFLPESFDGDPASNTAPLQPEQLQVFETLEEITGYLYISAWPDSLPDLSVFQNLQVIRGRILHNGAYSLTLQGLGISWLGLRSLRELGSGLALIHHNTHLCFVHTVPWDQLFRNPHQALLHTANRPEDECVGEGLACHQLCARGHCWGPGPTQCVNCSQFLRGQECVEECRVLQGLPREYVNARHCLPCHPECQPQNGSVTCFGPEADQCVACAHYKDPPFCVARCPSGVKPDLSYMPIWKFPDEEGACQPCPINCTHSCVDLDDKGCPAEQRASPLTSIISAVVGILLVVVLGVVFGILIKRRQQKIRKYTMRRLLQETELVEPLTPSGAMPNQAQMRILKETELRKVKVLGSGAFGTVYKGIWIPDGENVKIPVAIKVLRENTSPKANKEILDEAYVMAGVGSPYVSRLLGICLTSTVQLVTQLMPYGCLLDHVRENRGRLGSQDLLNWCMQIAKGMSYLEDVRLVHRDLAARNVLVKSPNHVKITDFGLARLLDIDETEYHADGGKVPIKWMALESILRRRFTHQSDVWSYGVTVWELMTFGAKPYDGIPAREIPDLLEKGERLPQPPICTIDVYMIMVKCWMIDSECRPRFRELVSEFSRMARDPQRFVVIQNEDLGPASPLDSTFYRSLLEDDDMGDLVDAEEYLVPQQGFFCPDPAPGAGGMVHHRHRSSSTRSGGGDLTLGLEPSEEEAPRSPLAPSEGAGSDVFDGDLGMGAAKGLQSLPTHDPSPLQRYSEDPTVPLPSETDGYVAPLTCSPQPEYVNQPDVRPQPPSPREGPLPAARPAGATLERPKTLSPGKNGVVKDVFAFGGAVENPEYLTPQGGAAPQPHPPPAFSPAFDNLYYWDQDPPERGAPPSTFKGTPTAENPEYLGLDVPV

CC[C@H](C)[C@H](NC(=O)[C@@H](N)CCCNC(=N)N)C(=O)N[C@@H](CCCCN)C(=O)N1CCC[C@H]1C(=O)N[C@@H](CCCNC(=N)N)C(=O)N[C@@H](CCCCN)C(=O)NCC(=O)N[C@@H](Cc1ccc(O)cc1)C(=O)N[C@H](C(=O)N[C@@H](CCCNC(=N)N)C(=O)NCC(=O)N[C@@H](CSSCCOC(=O)O[C@]1(CC)C(=O)OCc2c1cc1n(c2=O)Cc2cc3ccccc3nc2-1)C(=O)NCC(=O)N[C@@H](CSSCCOC(=O)O[C@]1(CC)C(=O)OCC2=C1C=C1c3nc4ccccc4cc3NC1C2=O)C(=O)NC(=O)C[C@H](NC(=O)CN)C(=O)N1CCC[C@H]1C(=O)N[C@@H](CC(N)=O)C(=O)N[C@@H](Cc1c[nH]c2ccccc12)C(=O)NCC(=O)N[C@@H](CCCNC(=N)N)C(=O)N[C@@H](CO)C(=O)N[C@@H](Cc1c[nH]c2ccccc12)C(=O)N[C@@H](Cc1ccc(O)cc1)C(=O)N[C@@H](CC(N)=O)C(=O)N[C@@H](CCC(N)=O)C(=O)N[C@@H](CCCNC(=N)N)C(=O)N[C@@H](Cc1ccccc1)C(=O)N[C@@H](CCCCN)C(N)=O)[C@@H](C)O (some centres undefined)
IC50 (MDA-MB-231): 7.72 µM | IC50 (SK-OV-3): 1270 nM | Activity [1]: Non-Toxic | Activity [2]: Non-Toxic | Stability [3]: Unstable | IC50 (SK-BR-3 [4]): 120 nM | Activity (SK-BR-3 [5]): 39.8% | Activity [6]: Non-Toxic | Activity [7]: Toxic | Activity [8]: Non-Toxic | half-life [9]: 15 min | Activity (SK-BR-3 [10]): 41% | inhibition [11]: Active | Activity [12]: Non-Toxic | Activity [13]: Non-Toxic | Activity [14]: Non-Toxic | IC50 at 48 h [15]: 17.1 µM | Activity (SK-BR-3 [16]): 51.2% | Activity [17]: Non-Toxic | Activity (SK-BR-3 [18]): 14% | Kd [19]: 437 nM | IC50 (NCI-N87): 1780 nM | Activity [20]: Non-Toxic | Activity [21]: Non-Toxic | inhibition [22]: Active | Activity [23]: Non-Toxic | Activity [24]: Active

CC[C@H](C)[C@H](NC(=O)[C@@H](N)CCCNC(=N)N)C(=O)N[C@@H](CCCCN)C(=O)N1CCC[C@H]1C(=O)N[C@@H](CCCNC(=N)N)C(=O)N[C@@H](CCCCN)C(=O)NCC(=O)N[C@@H](Cc1ccc(O)cc1)C(=O)N[C@H](C(=O)N[C@@H](CCCNC(=N)N)C(=O)NCC(=O)N[C@@H](CSSCCOC(=O)O[C@]1(CC)C(=O)OCc2c1cc1n(c2=O)Cc2cc3ccccc3nc2-1)C(=O)NCC(=O)N[C@@H](CC(N)=O)C(=O)N1CCC[C@H]1C(=O)N[C@@H](CC(N)=O)C(=O)N[C@@H](Cc1c[nH]c2ccccc12)C(=O)NCC(=O)N[C@@H](CCCNC(=N)N)C(=O)N[C@@H](CO)C(=O)N[C@@H](Cc1c[nH]c2ccccc12)C(=O)N[C@@H](Cc1ccc(O)cc1)C(=O)N[C@@H](CC(N)=O)C(=O)N[C@@H](CCC(N)=O)C(=O)N[C@@H](CCCNC(=N)N)C(=O)N[C@@H](Cc1ccccc1)C(=O)N[C@@H](CCCCN)C(N)=O)[C@@H](C)O (H-RIKPRKGYTRGC(S(CH2)2OCO2(CPT-20-yl))GNPNWGRSWYNQRFK-NH2)
IC50 (MDA-MB-231): 7.6 µM | IC50 (SK-OV-3): 4290 nM | Activity [1]: Non-Toxic | Activity [2]: Non-Toxic | Stability [3]: Unstable | IC50 (SK-BR-3 [4]): 1470 nM | Activity (SK-BR-3 [5]): 34.9% | Activity [6]: Non-Toxic | Activity [7]: Non-Toxic | Activity [8]: Non-Toxic | half-life [9]: 15 min | Activity (SK-BR-3 [10]): 39.4% | inhibition [11]: Active | Activity [12]: Non-Toxic | Activity [13]: Non-Toxic | Activity [14]: Non-Toxic | IC50 at 48 h [15]: 23.9 µM | Activity (SK-BR-3 [16]): 57.6% | Activity [17]: Non-Toxic | Activity (SK-BR-3 [18]): 10.8% | Kd [19]: 330 nM | IC50 (NCI-N87): 3290 nM | Activity [20]: Non-Toxic | Activity [21]: Non-Toxic | inhibition [22]: Active | Activity [23]: Non-Toxic | Activity [24]: Active
